In patent publication US7087394B2, “Methods and compositions for treating and diagnosing diabetes and related diseases involving beta-TRP” (Metabolex, Inc., priority 2003, dated 2006):
Entries after “also recorded” stand apart in the source; their conditions may differ.

Columns and labels:
βTRP = biological target: T1, βTRP (Homo sapiens, UniProt Q9NZQ8); test: Membrane potential (MP) assay in βTRP-CHO cells, FLEXStation with Membrane Potential Dye; type: cell-based; conditions: for depolarization / MP response in βTRP-CHO cells: βTRP-CHO cell line (A2-18); for EC50: βTRP-CHO cells, membrane potential, read-out: estimated EC50 of depolarization
T1 construct: expressed in transfected cells; control line A1-5
T1 sequence (Q9NZQ8 1-1165): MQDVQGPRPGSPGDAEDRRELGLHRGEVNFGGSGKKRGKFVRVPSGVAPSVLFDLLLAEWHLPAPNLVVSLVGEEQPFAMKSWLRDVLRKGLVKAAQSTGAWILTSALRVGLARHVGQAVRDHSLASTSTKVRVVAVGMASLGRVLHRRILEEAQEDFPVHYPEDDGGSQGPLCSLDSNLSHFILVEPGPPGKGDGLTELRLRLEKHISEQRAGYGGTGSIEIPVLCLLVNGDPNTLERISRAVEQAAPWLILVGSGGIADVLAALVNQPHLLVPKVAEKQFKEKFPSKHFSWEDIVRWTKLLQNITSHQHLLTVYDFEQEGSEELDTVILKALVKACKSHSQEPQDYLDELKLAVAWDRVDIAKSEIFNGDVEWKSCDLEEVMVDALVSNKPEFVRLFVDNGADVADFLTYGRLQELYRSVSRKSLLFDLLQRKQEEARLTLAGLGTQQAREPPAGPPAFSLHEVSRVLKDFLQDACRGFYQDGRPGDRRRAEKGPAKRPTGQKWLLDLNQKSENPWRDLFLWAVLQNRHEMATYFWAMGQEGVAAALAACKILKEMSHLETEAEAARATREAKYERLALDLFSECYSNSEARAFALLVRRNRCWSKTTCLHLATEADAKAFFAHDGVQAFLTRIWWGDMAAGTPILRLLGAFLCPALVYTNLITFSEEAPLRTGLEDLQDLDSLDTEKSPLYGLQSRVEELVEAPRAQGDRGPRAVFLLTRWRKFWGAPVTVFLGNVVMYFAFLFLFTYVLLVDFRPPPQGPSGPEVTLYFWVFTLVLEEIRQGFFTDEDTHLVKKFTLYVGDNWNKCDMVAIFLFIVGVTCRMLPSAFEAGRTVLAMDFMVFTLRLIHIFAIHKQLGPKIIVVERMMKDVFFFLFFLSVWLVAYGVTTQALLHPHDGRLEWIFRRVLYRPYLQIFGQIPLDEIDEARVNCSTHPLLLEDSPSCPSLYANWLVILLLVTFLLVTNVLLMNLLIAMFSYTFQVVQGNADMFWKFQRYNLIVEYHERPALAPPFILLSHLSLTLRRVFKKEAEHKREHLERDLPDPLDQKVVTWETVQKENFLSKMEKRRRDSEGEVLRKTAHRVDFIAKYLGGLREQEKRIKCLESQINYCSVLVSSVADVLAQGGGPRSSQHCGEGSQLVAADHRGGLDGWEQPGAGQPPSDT
Protocol: (§1) Control and βTRP-CHO cells were plated in 96-well plates 2-d before the assay. [Ca^2+]i and membrane potential (MP) responses to ATP (30 μM added at 20 sec) were measured with FLEXStation® and correspondent dyes from Molecular Devices (Sunnyvale, Calif.).
(§2) The following protocol is optimized for the measurement of membrane potential (MP) in 96-well format using Molecular Devices' Membrane Potential Dye (Cat #R-8034) on the FLEXStation (Molecular Devices). It is expected to be applicable or adaptable to the 384-well format assay with the FLIPR^384 system.
A CHO-K1 based stable cell line expressing βTRP (designated “Line A2-18” herein) is used for βTRP high throughput screening according to the follow protocol: • 1. Seed A2–18 βTrp-CHO cell and the control line (A1-5) to 96-well plates. • 2. Grow the cells for 24–48 h in DMEM medium to 85–95% confluency. • 3. Prepare following reagents immediately before the assay: • i. Assay buffer: dilute Component B of the FLIPR® assay kit and adjust pH to 7.4 with 1 N NaOH. No probenecid was needed. • ii. MP dye: suspend a vial of Component A of the FLIPR® assay kit with 10 ml of the assay buffer. • iii. Compound solutions: dilute DMSO stocks of the testing compounds to a 5× solution with the assay buffer. Raise Ca^2+ concentration in the compound solutions to 12.5 mM with 1 M CaCl2. • 4. Carefully remove the culture medium from all wells. • 5. Add 50 μl assay buffer and 50 μl MP dye. • 6. Incubate the plates at 37° C. for 30–60 minutes. • 7. Set the FLEXStation to MP assay mode and to 37° C. • 8. Transfer the cell plate and compound plate to FLEXStation. • 9. Record baseline for 18 sec (Ex 530, Em560). • 10. Add the 5× compound solutions to the cells and read another 100 sec. • 11. Save and analyze data. Reagent List • 1. Assay buffer: Hank's Balanced Salt Solution (HBSS) with 20 mM Hepes, pH 7.4 • 2. MP dye: Molecular Devices Corporation, Cat#8034 (for FLIPR) • 3. Positive control: ATP 10–100 μM (a purinergic receptor agonist) Calcimycin (A23187) 5–10 μM (a calcium ionophore) • 4. Antagonist control: • i. 2-APB 75 μM (from Tocris, TRP channel and IP3 receptor blocker); • ii. U73122 10 μM (from Sigma Chemicals, PLC inhibitor). Other Experimental Conditions • 1. The Cells: • iii. Maintenance: DMEM with 10% FCS and 200 μg/ml G418; Passaged 1–2 time/week with trypsin-EDTA. • iv. Confluency: 85–95% by the time of assay. • v. Plating: Regular or pre-coated plates; 24–48 h before assay. • vi. Passage: up to the 10th passage.

control (A1-5) CHO cells = test: Membrane potential (MP) assay in control CHO cells (A1-5); type: cell-based, Chinese hamster; conditions: control CHO line (A1-5)
Protocol: as §1, §2
A CHO-K1 based stable cell line expressing βTRP (designated “Line A2-18” herein) is used for βTRP high throughput screening according to the follow protocol: • 1. Seed A2–18 βTrp-CHO cell and the control line (A1-5) to 96-well plates. • 2. Grow the cells for 24–48 h in DMEM medium to 85–95% confluency. • 3. Prepare following reagents immediately before the assay: • i. Assay buffer: dilute Component B of the FLIPR® assay kit and adjust pH to 7.4 with 1 N NaOH. No probenecid was needed. • ii. MP dye: suspend a vial of Component A of the FLIPR® assay kit with 10 ml of the assay buffer. • iii. Compound solutions: dilute DMSO stocks of the testing compounds to a 5× solution with the assay buffer. Raise Ca^2+ concentration in the compound solutions to 12.5 mM with 1 M CaCl2. • 4. Carefully remove the culture medium from all wells. • 5. Add 50 μl assay buffer and 50 μl MP dye. • 6. Incubate the plates at 37° C. for 30–60 minutes. • 7. Set the FLEXStation to MP assay mode and to 37° C. • 8. Transfer the cell plate and compound plate to FLEXStation. • 9. Record baseline for 18 sec (Ex 530, Em560). • 10. Add the 5× compound solutions to the cells and read another 100 sec. • 11. Save and analyze data. Reagent List • 1. Assay buffer: Hank's Balanced Salt Solution (HBSS) with 20 mM Hepes, pH 7.4 • 2. MP dye: Molecular Devices Corporation, Cat#8034 (for FLIPR) • 3. Positive control: ATP 10–100 μM (a purinergic receptor agonist) Calcimycin (A23187) 5–10 μM (a calcium ionophore) • 4. Antagonist control: • i. […]

SMILES | depolarization / MP response in control cells (control (A1-5) CHO cells) | depolarization / MP response in βTRP-CHO cells (βTRP) | EC50 (βTRP) [µM] | also measured
NCCOB(c1ccccc1)c1ccccc1 [2-APB] |  |  |  | suppression of MP response to ATP (βTRP; inhibitor added at the same time as ATP): over 50%; suppression of MP response to calcimycin (βTRP; inhibitor added at the same time as calcimycin): over 50%
Nc1ncnc2c1ncn2[C@@H]1O[C@H](COP(=O)(O)OP(=O)(O)OP(=O)(O)O)[C@@H](O)[C@H]1O [ATP] | No effect | present only in βTRP cells; also recorded: dose-dependently induced depolarization | ~11 | 
CCCCCCC[N+](CC)(CC)CCCCc1ccc(Cl)cc1 [Clofilium] | triggered depolarization | triggered depolarization |  | 
C=CC[C@H](C)[C@H](C)C[C@@H](O)[C@H](O)[C@@H]1CC[C@@]2(C)O[C@@]3(C)C[C@@]4(C)O[C@H]5/C=C\C[C@H]6O[C@H]7C[C@H]8O[C@H]9C[C@@]%10(C)O[C@@](C)([C@@H]%11CC[C@H]%12O[C@@]%13(C)C[C@H]%14O[C@@]%15(C)C[C@H]%16O[C@@]%17(C)C[C@@H](O)[C@H]([C@@H]%18O[C@H]%19[C@H](O)[C@@H](O)[C@H](C[C@H](O)C[C@@H](O)[C@@H]%20O[C@H]%21[C@H](O)[C@@H](O)[C@H]([C@@H]%22O[C@@H]%23[C@H](O)[C@H]%24O[C@H]%25C[C@H]%26O[C@@H](C[C@H](O)[C@@H](O)[C@H]%27O[C@H]%28[C@H](O)[C@H]%29O[C@H]%30C[C@H]%31O[C@H]%32[C@@H](O)[C@@H](O)[C@H]([C@H](C)[C@H](O)[C@H](C)CC[C@H](OS(=O)(=O)O)[C@H](O)[C@H](C)C[C@@H](O)C(=C)/C(C)=C/CO)O[C@@H]%32[C@H](O)C[C@]%31(C)O[C@@H]%30C[C@]%29(C)O[C@@H]%28C[C@H]%27O)[C@H](OS(=O)(=O)O)[C@H](O)[C@@H]%26O[C@@H]%25C[C@@H]%24O[C@H]%23[C@H](O)[C@H]%22O)O[C@H]%21C[C@H]%20O)O[C@H]%19C[C@H]%18O)O[C@@H]%17[C@H](O)[C@]%16(C)O[C@@H]%15CC[C@]%14(C)O[C@@H]%13C[C@@H]%12O%11)[C@H](O)C[C@@H]%10O[C@]9(C)CC[C@]8(C)O[C@]7(C)C[C@@H]6O[C@@H]5C[C@@H]4O[C@@H]3C[C@@H]2O1 [MTX, maitotoxin] |  |  |  | MP response at low Ca2+ (βTRP; 1.26 mM Ca2+ in assay buffer): lack of action; [Ca2+]i or MP increase at raised Ca2+ (βTRP; Ca2+ raised to 2.5–5 mM): significantly enhanced
COc1ccc2c(c1)CC[C@@H]1[C@@H]2CC[C@]2(C)[C@@H](NCCCCCCN3C(=O)C=CC3=O)CC[C@@H]12 [U73122] |  |  |  | effect on ATP-induced MP response after pre-incubation (βTRP; 30 minute pre-incubation before ATP): inhibited
CNc1ccc2oc(C[C@H]3O[C@@]4(CC[C@H]3C)O[C@H]([C@H](C)C(=O)c3ccc[nH]3)[C@H](C)C[C@H]4C)nc2c1C(=O)O [calcimycin, Calcimycin] | No effect | dose-dependently induced depolarization | ~0.8 | depolarization / MP response in βTRP-CHO cells (βTRP; listed as A23187): induced a βTRP cell specific depolarization
